Measured values reported in US20150250786A1, “PYRIMIDINE HYDROXY AMIDE COMPOUNDS AS PROTEIN DEACETYLASE INHIBITORS AND METHODS OF USE THEREOF” (THE TRUSTEES OF THE UNIVERSITY OF PENNSYLVANIA, priority 2012, published 2015).
Several values for one entry are separate records, joined by “and”; a condition that tells them apart may be missing. Equal entries are not always repeated. Where two headings read alike, the source gives them in different places.

Columns and labels:
[1] = tested on: NIH Swiss mice; C57BL/6J HDAC6 WT and KO mice; assay: Tail suspension test (TST); assay type: in vivo, mouse; details: for immobility in TST: NIH Swiss mice
mice [2] = assay: Open-field test; assay type: in vivo, mouse
[3] = Pharmacokinetics and brain bio-distribution in mice; assay type: in vivo, mouse; details: mouse; for Kp: brain, calculated over 2 hours
Procedure: […] Plasma samples were taken from all mice upon sacrifice. Brain samples were taken from the mice sacrificed at 5 and 15 minutes and 1 and 4 hours. The brain samples were homogenized in PBS and centrifuged at 14000 rpm for 5 minutes. The supernatant from the brain homogenate and the plasma samples were injected onto a LC/MS/MS for analysis. The compound level in the samples was determined by a standard curve in the appropriate matrix. Pharmacokinetic parameters were determined from the raw data by WinNonLin.

mice [4] = assay: NIH test; assay type: in vivo, mouse; details: acute, 50 mg/kg
[5] = tested on: α-tubulin acetylation in mouse whole brain lysates; assay: α-tubulin acetylation in whole brain lysates after single i.p. administration; assay type: in vivo; details: compound 73 5 mg/kg, compound 101 50 mg/kg, tubastatin A 10 mg/kg, 30 min, 1 h, 4 h
[6] = tested on: RN46A-B14 serotonergic cell line; assay: α-tubulin K40 acetylation in RN46A-B14 cells (Western blot); assay type: cell-based, rat; details: 4 hours; TSA 0.6 μM, others 2.5 μM
Procedure: In FIG. 3, it was observed that subchronic treatment, consisting of 5 treatments at 48, 28, 24, 4 and ½ hours before sacrifice, led to greater increase in tubulin acetylation than did chronic treatment of 1 injection/day for 21 days. For cell culture, RN46B cells were treated for with 0.25, 2.5 or 25 μM drug in DMSO for 1, 4 or 24 hours as indicated. Tukey post-hoc analysis: * P=0.01 to 0.05, ** P=0.001-0.01, ***P<0.001 when compared with vehicle treatment.
(§1) Results are shown as percent change normalized to the vehicle treatment condition. The horizontal hard line depicts average and the dotted lines depict SEM of the vehicle treated wells. Representative Western blot images are presented. […] Representative Western blot images are presented. […] The drugs (5 mg/kg) were administered subchronically (at 24 h, 4 h and 30 min prior to sacrifice) to HDAC6 KO and WT littermates. The changes in tubulin acetylation were measured in tissue lysates from cortex (ctx), hippocampus (Hpc), dorsal Raphe nucleus (DRN) and cerebellum (cb). The tubulin acetylation levels in drug-treated mice are expressed as percent change of the vehicle-treated mice of the corresponding genotype. The horizontal lines depict the average tubulin acetylation±SEM in the vehicle treated mice. The representative Western blot images show the changes induced by each drug treatment in the hippocampus (left column) and dorsal raphe (right column) of WT and HDAC6 KO mice.
In contrast to the class I isoforms HDAC2 and 3, which are expressed highly and ubiquitously in the mouse brain, HDAC6 mRNA expression appears to be restricted to a small number of brain areas, with highest signal observed in DRN (FIG. 13f). […] No changes in total α-tubulin expression were detected (FIG. 14a).

[7] = tested on: RN46A-B14 serotonergic cell line; assay: Histone H3K9 acetylation in RN46A-B14 cells (Western blot); assay type: cell-based, rat; details: 2.5 μM, 4 hours
[8] = Body weight gain during chronic treatment; assay type: in vivo, mouse; details: 4 weeks of treatment
mice [9] = assay: Marble-burying task; assay type: in vivo, mouse; details: acute administration
[10] = tested on: histone H3 lysine 9 acetylation; assay: Histone H3K9 acetylation in vivo (Western blot, ChIP); design: species or system mouse
mice [11] = assay: Chronic social defeat (CSD) and social interaction test; assay type: in vivo, mouse; details: compound 73 5 mg/kg
Procedure: Additionally, when combined with a dose of Citalopram with lower activity, these compounds seemed to have an additive effect (See FIG. 10). The dose of Citalopram chosen for this experiment was based on literature stating 2 mg/kg should be subactive, but this dose was found still showing an effect. Mice then underwent chronic social defeat stress, in which the mice are exposed to an aggressive resident mouse for 5 minutes daily for 10 days and are then tested on the 11th day in the social interaction test. Mice treated with vehicle for 20 total days, beginning 10 days before the defeat, show reduced time spent in the interaction zone when a target mouse is present when compared with control mice. […] The percent of mice found to be resilient, defined as spending more time in the interaction zone than the lowest control (i.e. ˜52 s), is higher in HDAC6 inhibitor groups. All behavior testing done using NIH Swiss mice, age 6-10 weeks. Tukey post-hoc analysis: * P=0.01 to 0.05, ** P=0.001-0.01, ***P<0.001 compared with vehicle treated mice.
The effects were observed 30 minutes after acute 50 mg/kg i.p. injection, but not for the lower dose (5 mg/kg). Combination of subactive doses of the HDAC6 selective inhibitors (5 mg/kg) and citalopram (0.5 mg/kg) produced robust potentiation of anti-immobility activity (n=8-29 per condition). […] No difference was observed between HDAC6 WT and KO when treated with the vehicle (n=6-15 per condition). FIG. 16c is a timeline showing treatment period, social defeat and social interaction (SI) testing.
A pro-resilient phenotype in the mouse CSD paradigm after serotonin-selective KO of HDAC6 was previously reported (Espallergues et al, 2012). Whether a chronic pharmacological inhibition of HDAC6 can replicate that phenotype is studied. […] On day 21, 24 h after the last injection, the mice were tested in the social interaction test. […] Significant effects were also observed when data was evaluated in terms of proportion of mice reaching criterion for resiliency.

mice [12] = assay: Elevated plus maze (EPM); assay type: in vivo, mouse; details: acute administration
[13] = tested on: α-tubulin K40 acetylation in cortex, hippocampus, DRN, cerebellum; assay: α-tubulin acetylation in brain regions after subchronic administration, WT and HDAC6 KO mice; assay type: in vivo, mouse
Procedure: as §1, with “The drugs (5 mg/kg) were administered subchronically (at 24 h, 4 h and 30 min prior to sacrifice) to HDAC6 KO and WT littermates.” left out

SMILES: O=C(NO)c1cnc(NC2(c3ccccc3)CC2)nc1 [Compound 73, N-hydroxy-2-((1-phenylcyclopropyl)amino)pyrimidine-5-carboxamide]
- immobility in TST ([1]; 5 mg/kg): No significant effect
- activity in TST two hours after the injection ([1]; 20 mg/kg citalopram, 50 mg/kg compound 73): still had significant activity
- immobility in TST ([1]; 50 mg/kg i.p., 30 minutes): Significant reductions
- anti-immobility effect in HDAC6 KO mice ([1]; C57BL/6J background, versus WT littermates): no significant effect
- anti-immobility effects in C57BL/6J WT mice ([1]; mouse, in vivo): still significant
- exploratory activity in novel open-field arena (mice [2]; acute, compounds 73, 101 50 mg/kg, tubastatin A 10 mg/kg): hyperlocomotor effects
- distance in the center of the open field (mice [2]; mouse, in vivo): 602±96 beam breaks
- Kp ([3]; C57BL/6J, intraperitoneal, read-out: AUCBrain/AUCplasma): 1.22
- concentration at 30 min ([3]; C57BL/6J, plasma, intraperitoneal, 5 mg/kg, read-out: 30 min plasma concentration (ng/ml) - 5 mg/kg): 89 ng/mL
- concentration at 30 min ([3]; C57BL/6J, plasma, intraperitoneal, 50 mg/kg, read-out: 30 min plasma concentration (ng/ml) - 50 mg/kg): 515 ng/mL
- Cmax ([3]; C57BL/6J, plasma, ip, 5 mg/kg, mice, acute i.p. dosing, read-out: Cmax): 494 ng/mL
- half-life ([3]; C57BL/6J, plasma, ip, mice, acute i.p. dosing, read-out: T½ plasma (converted)): 12 min
- Kp ([3]; intraperitoneal, read-out: AUCBrain/AUCplasma ratio): > 1
- concentration at 30 min ([3]; plasma, intraperitoneal, acute 50 mg/kg injection, read-out: plasma level at t=30 minutes): 515 ng/mL and 1.9 µM
- concentration at 2 h ([3]; plasma, intraperitoneal, read-out: plasma concentration after two hours): < 10 ng/mL
- half-life ([3]; plasma, intraperitoneal, read-out: plasmatic half-life): 12 min
- latency to eat in the NIH test (mice [4]): significantly decreased
- α-tubulin acetylation in whole brain lysates [5]: significant increases
- acetylated (lysine 40) fraction of α-tubulin [6]: increases
- change in histone H3K9 acetylation [7]: no significant change
- body weight gain [8]: no significant effect
- number of marbles buried (mice [9]): significantly reduced
- histone H3K9 acetylation enrichment at promoter DNA (cFOS, BDNF promoter 4), ChIP ([10]; hippocampus, repeated i.p., compound 73 5 mg/kg, sodium butyrate 1.2 g/kg): no concurrent changes
- acetylation of histone 3 at lysine 9 in Western blot ([10]; in vivo treatment): did not significantly alter
- time in the interaction zone versus vehicle, defeated mice (mice [11]; 20 days treatment, fluoxetine 20 mg/kg, compound 101 50 mg/kg): significantly higher
- percentage of resilient mice (mice [11]; after CSD, fluoxetine 20 mg/kg, compound 101 50 mg/kg): 81%
- time spent in the corner zones (mice [11]; versus vehicle): decrease
- behavioral changes / time in the open arms of the maze (mice [12]): neither compound 73 nor compound 101 produced behavioral changes
- α-tubulin acetylation over baseline levels ([13]; HDAC6 KO mice, identical treatment regimens): did not produce increases
- α-tubulin acetylation in cortex, hippocampus, DRN, cerebellum ([13]; wild-type mice, 24 h, 4 h, 30 m before sacrifice, compound 73 5 mg/kg, compound 101 50 mg/kg): significant increases
